Laboratory results from patent publication EP1082333B1, “THIOCO[…], PREPARATION AND THERAPEUTIC APPLICATION” (SANOFI-SYNTHELABO, priority 1998, dated 1999).

Tested on: réflexe polysynaptique
Assay: Inhibition of the polysynaptic reflex in the normal rat (RPRN), EMG of biceps femoris
Type: in vivo
Settings: 10 mg/kg, voie i.p
Excerpt: L'activité décontraccurante du composé de l'invention a été déterminée par l'inhibition du réflexe polysynaptique chez le rat normal (RPRN). L'animal est placé en contention en décubitus ventral. Les membres postérieurs sont immobilisés. Les réflexes polysynaptiques sont évoqués dans le muscle Biceps fémoral (fléchisseur de la cuisse) par stimulation électrique de la voûte plantaire (territoire cutané du nerf sural). L'EMG (Electro-Myo-Graphie) est recueilli par deux électrodes en acier inoxydable insérées dans le muscle parallélement aux fibres.
Les électrodes de stimulation en acier inoxydable sont insérées en position sous-cutanée. La stimulation consiste en un choc électrique carré de 0.2-0.4 ms de durée et de 0.2 Hz de fréquence. L'intensité de la stimulation est réglée pour obtenir des réflexes bien constitués et de surface stable (8-12 mA).
L'EMG est amplifié. La surface de chaque réflexe est mesurée.
Des séries de 20 réflexes sont enregistrées toutes les 15 minutes. La surface des 20 réflexes de chaque série est moyennée.
Après plusieurs séries contrôles, le produit à étudier est administré. La moyenne des 20 premières réponses contrôles est prise pour 100 %. L'évolution des réponses EMG est suivie alors pendant 2 ou 3 heures.

SMILES: COc1c(OC2OC(C(=O)O)C(O)C(O)C2O)cc2c(c1OC)-c1ccc(SC)c(=O)cc1C(NC(C)=O)CC2 (stereo not shown) [composé de l'invention]
- inhibe le réflexe polysynaptique: 78%
